Measured values as given in BindingDB's records for doi:10.1038/350610a0 (University of Toronto, 1991).
Several values for one entry are separate records, joined by “and”; a condition that tells them apart may be missing. Identical values can stand only once.

Key:
Dopamine receptor D4 = biological target: T1, Dopamine receptor D4 (Canis lupus familiaris, UniProt Q589Y6)
T1 sequence (Q589Y6 whole entry): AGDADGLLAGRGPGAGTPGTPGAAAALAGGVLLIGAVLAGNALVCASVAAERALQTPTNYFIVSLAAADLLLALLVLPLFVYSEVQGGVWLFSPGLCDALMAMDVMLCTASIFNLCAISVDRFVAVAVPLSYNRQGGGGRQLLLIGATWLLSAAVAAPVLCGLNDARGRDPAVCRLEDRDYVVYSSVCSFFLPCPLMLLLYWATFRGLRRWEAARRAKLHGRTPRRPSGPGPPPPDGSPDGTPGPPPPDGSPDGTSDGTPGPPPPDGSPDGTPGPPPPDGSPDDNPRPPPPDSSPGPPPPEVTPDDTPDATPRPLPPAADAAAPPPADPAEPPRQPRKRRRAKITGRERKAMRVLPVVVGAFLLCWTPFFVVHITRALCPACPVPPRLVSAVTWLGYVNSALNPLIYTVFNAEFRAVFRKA

D(4) dopamine receptor = biological target: T2, D(4) dopamine receptor (Rattus norvegicus, UniProt P30729)
T2 sequence (P30729 whole entry): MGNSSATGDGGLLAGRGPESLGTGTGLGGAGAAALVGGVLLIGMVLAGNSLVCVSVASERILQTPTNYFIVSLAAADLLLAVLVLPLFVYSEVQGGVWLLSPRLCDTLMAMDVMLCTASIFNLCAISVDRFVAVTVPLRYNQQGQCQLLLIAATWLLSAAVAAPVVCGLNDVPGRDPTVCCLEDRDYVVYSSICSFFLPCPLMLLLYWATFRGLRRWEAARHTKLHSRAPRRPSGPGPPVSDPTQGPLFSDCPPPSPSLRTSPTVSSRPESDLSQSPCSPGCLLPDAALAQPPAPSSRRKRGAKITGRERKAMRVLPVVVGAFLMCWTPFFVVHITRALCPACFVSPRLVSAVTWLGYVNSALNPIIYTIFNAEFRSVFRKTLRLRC

D(2) dopamine receptor = D(2) dopamine receptor (Homo sapiens, UniProt P14416)
Sequence of D(2) dopamine receptor (P14416 whole entry): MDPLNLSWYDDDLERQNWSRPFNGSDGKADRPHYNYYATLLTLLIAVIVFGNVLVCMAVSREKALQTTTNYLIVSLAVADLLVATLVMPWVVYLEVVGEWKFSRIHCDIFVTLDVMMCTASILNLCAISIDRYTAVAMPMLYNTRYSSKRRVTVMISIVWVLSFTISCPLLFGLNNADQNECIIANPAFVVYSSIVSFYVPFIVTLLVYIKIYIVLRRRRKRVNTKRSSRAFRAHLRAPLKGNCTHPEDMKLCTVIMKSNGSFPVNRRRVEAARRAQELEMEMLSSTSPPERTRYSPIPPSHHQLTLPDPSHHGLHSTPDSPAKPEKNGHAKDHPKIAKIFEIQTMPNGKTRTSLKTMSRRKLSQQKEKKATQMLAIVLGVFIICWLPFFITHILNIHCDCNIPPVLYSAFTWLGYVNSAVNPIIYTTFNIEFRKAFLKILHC

SMILES	Ki (Dopamine receptor D4)	Ki (D(4) dopamine receptor) [nM]	Ki (D(2) dopamine receptor) [nM]
NCCc1ccc(O)c(O)c1	7.5 nM and 28 nM		
CN1CCN(CCCN2c3ccccc3Sc3ccc(C(F)(F)F)cc32)CC1	1.2 nM and 3 nM		
O=c1[nH]c2ccccc2n1C1CCN(CCCC(c2ccc(F)cc2)c2ccc(F)cc2)CC1 [1-(1-(4,4-bis(4-fluorophenyl)butyl)piperidin-4-yl)-1H-benzo[d]imidazol-2(3H)-one]		43	
CCN1CCC[C@H]1CNC(=O)c1c(O)c(Cl)cc(Cl)c1OC [3,5-Dichloro-N-(1-ethyl-pyrrolidin-2-ylmethyl)-2-hydroxy-6-methoxy-benzamide (raclopride)]		237	
O=C(c1ccc(F)cc1)C1CCN(CCn2c(=O)[nH]c3ccccc3c2=O)CC1 [3-(2-{4-[(4-fluorophenyl)carbonyl]piperidin-1-yl}ethyl)-1,2,3,4-tetrahydroquinazoline-2,4-dione]	192 nM and 148 nM		
CN1CCN(C2=c3ccccc3=Nc3ccc(Cl)cc3N2)CC1 [6-chloro-10-(4-methylpiperazin-1-yl)-2,9-diazatricyclo[9.4.0.0^{3,8}]pentadeca-1,3(8),4,6,10,12,14-heptaene]	9 nM		
CN1CCc2cccc3c2[C@H]1Cc1ccc(O)c(O)c1-3 [APOKYN]	2 nM and 4.1 nM		
CC(C)C[C@H]1C(=O)N2CCC[C@H]2[C@]2(O)O[C@](NC(=O)[C@@H]3C=C4c5cccc6[nH]c(Br)c(c56)C[C@H]4N(C)C3)(C(C)C)C(=O)N12 [Bromocriptine+ (GTP+)]		340	12.6
Nc1nc2c(ncn2[C@@H]2O[C@H](COP(=O)(O)OP(=O)(O)OP(=O)(O)O)[C@@H](O)[C@H]2O)c(=O)[nH]1 [Dopamine+ (GTP+)]		450	
CCCN1CCC[C@@H]2Cc3n[nH]cc3C[C@H]21 [NSC_54562]	4.8 nM and 46 nM		
CN1CCN(CCCN2c3ccccc3Sc3ccc(S(=O)(=O)N(C)C)cc32)CC1 [NSC_92178]		53	
NCC(O)c1ccc(O)c(O)c1 (stereo not drawn) [Noradrenaline,(+)]	6000 nM and 1760 nM		
NCCc1c[nH]c2ccc(O)cc12 [[3H]-5-HT]	4180 nM		
